Tests used:
[1] = target: T1, ecto-5'-nucleotidase/CD73 (Homo sapiens, UniProt P21589); assay: phosphate release from […] dAMP in COS-7 cells expressing CD73
T1 construct: gene NT5E
T1 sequence (P21589 27-549): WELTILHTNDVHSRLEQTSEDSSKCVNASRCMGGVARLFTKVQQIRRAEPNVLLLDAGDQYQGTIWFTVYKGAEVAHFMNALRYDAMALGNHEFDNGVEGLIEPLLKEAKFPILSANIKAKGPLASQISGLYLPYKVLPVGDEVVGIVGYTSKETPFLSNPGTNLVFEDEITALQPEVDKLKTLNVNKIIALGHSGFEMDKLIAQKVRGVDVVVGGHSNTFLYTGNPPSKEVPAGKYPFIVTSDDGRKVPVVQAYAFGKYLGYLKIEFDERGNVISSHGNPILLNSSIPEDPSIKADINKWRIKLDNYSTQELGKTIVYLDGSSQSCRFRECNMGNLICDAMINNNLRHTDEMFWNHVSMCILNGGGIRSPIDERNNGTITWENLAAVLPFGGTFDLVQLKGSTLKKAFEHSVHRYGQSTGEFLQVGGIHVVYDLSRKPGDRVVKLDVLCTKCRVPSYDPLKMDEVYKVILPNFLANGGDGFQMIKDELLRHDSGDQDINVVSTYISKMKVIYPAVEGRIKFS

[2] = target: T2, concentrative nucleoside transporter 3 (CNT3) (Homo sapiens, UniProt Q9HAS3); assay: radiolabelled uptake ([…]) in COS-7 cells transiently expressing CNT3 vs empty vector; type: cell-based
T2 construct: gene SLC28A3
T2 sequence (Q9HAS3 1-691): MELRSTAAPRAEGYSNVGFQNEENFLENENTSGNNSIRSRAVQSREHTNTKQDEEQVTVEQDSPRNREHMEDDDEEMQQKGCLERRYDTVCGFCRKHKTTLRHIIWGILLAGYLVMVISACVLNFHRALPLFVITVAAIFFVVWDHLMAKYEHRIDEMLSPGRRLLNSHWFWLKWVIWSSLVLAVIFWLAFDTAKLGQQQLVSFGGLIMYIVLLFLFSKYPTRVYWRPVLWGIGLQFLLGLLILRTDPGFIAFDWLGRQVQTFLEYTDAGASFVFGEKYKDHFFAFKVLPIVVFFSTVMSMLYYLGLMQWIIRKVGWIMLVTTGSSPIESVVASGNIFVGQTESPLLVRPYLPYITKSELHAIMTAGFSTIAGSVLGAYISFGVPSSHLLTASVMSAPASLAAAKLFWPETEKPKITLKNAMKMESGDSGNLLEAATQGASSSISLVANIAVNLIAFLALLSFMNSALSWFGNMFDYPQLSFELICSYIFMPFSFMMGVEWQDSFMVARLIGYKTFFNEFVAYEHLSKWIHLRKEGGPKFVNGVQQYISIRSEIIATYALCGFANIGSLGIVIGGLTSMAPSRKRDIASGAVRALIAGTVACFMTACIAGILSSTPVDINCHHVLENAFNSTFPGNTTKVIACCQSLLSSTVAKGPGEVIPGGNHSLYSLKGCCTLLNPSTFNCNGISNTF

[3] = target: T2, concentrative nucleoside transporter 3 (CNT3); assay: radiolabelled uptake ([…]) in COS-7 cells transiently expressing CNT3 vs mock; type: cell-based
[4] = substrate: Nc1ncnc2c1ncn2[C@H]1C[C@H](O)[C@@H](COP(=O)(O)O)O1; assay: cells, lysate or membranes; conditions: Na+
[5] = substrate: Nc1ncnc2c1ncn2C1CC(O)C(CO)O1; assay: cells, lysate or membranes; conditions: Na+

**Q.** Which “phosphate release from 10 μM dAMP in COS-7 cells expressing CD73” value [1] does the source give for `Nc1ncnc2c1ncn2[C@H]1C[C@H](O)[C@@H](COP(=O)(O)O)O1` [2'-deoxyadenosine 5'-monophosphate] here?
**A.** The value was “the phosphate release from dAMP was significantly increased by the introduction of CD73 into COS-7 cells”.

**Q.** How did the “radiolabelled uptake (10 nM) in COS-7 cells transiently expressing CNT3 vs empty” value [2] turn out when `Nc1ncnc2c1ncn2[C@@H]1O[C@H](COP(=O)(O)O)[C@@H](O)[C@H]1O` [Adenosine 5'-monophosphate] was run?
**A.** Its value is “enhanced cellular uptake of [^3H]AMP with the introduction of CNT3 alone was greater than that of [^3H]dAMP”.

**Q.** How did the “radiolabelled uptake (10 nM) in COS-7 cells transiently expressing CNT3 vs mock” value [3] turn out when `Cc1cn([C@H]2C[C@H](O)[C@@H](CO)O2)c(=O)[nH]c1=O` [thymidine] was run?
**A.** Its value is “Transfection of CNT3 cDNA into COS-7 cells resulted in an increased uptake of [^3H]thymidine, a typical substrate of CNT3”.

B1: concentrative nucleoside transporter 3 (CNT3) (Homo sapiens) (protein)
chain: T2 sequence (Q9HAS3 1-691)
**Q.** Which Km [4] does the source give for B1 here?
**A.** The Km was 59.6 ± 3.8 µM.

**Q.** And the Km [5]?
**A.** Its Km is 56.3 ± 7.0 µM.

Reference: paper PMC6802847, “Mutual role of ecto-5'-nucleotidase/CD73 and concentrative nucleoside transporter 3 in the intestinal uptake of dAMP” (PLoS ONE, 2019)
